For one test, the system named is herpes virus. The experiment in a line: Virus replication in infected cell cultures, plaque assay of supernatant. Type of test: cell-based. Particulars: Fibroblast, herpes-infected monkey kidney cells or human fibroblasts, 24 hours, read-out: IC50 (concentration at which virus replication is inhibited by 50%). How it is done:
The virostatic properties were determined by in vitro tests. The following virus strains were used:
Cell cultures (monkey kidney cells or human fibroblasts) are infected with herpes and a series of cultures are exposed to medium containing various concentrations of the test substance. After 24 hours the concentration of the virus descendants in the cell culture supernatant is determined by plaque assays.

Test [1] relates to endotoxin from E. coli (lethal endotoxic shock). The experiment in a line: Prevention of lethal endotoxic shock in the mouse by H2C11AG. It is filed as in vivo, mice of the Balb C strain. The conditions noted are these: 100 mg/kg by oesophageal tube 2 hours before 0.7 mg endotoxin i.p., 10 animals, observed 12 days. The method, then:
10 mice of the Balb C strain (about 8 weeks old) were given 0.7 mg of endotoxin from E. coli (in 0.2 ml of isotonic saline solution) by intraperitoneal injection. 10 animals were given 100 mg/kg of H2C11AG (dissolved in twice distilled water) by oesphageal tube 2 hours before the LPS treatment. The control animals were given water.

Test [2] deals with acidic SMase (microsome fraction from macrophage). The experiment in a line: Inhibition of acidic SMase (14C sphingomyelin hydrolysis). It is filed as biochemical. Particulars: pH 5.6, untreated = 100%. The method, then:
^14C sphingomyelin (10 μg/ml) were incubated with neutral SMase (membrane fraction isolated from mouse brains, 10 μg protein/mixture, according to Gatt, S. Biochem. Biophys. Res. Commun. 68, 235-241, 1976) or with acidic SMase (microsome fraction from macrophage 5 μg of protein/mixture isolated according to Gatt, S. Biochem. Biophys. Res. Commun. 68, 235-241, 1976) in the presence of various concentrations of the test substances, for 2 hours at 37° C. in 20 mM Tris, 1 mM MgCl2, pH 7.5 (neutral SMase) or in 50 mM sodium acetate, 1 mM MgCl2, pH 5.6 (acid SMase). Then the samples were extracted with 5 times the volume of chloroform/methanol (1:1) and the content of radioactive phosphorylcholine in the aqueous phase was determined. The release of phosphorylcholine in the untreated mixtures corresponds to 100% enzyme activity.
^14C-sphingomyelin (10 μg/ml) was incubated with neutral SMase (membrane fraction from mouse brain, 10 μg of protein/batch, isolated according to Gatt, S. Biochem. Biophys. Res. Commun. 68, 235-241, 1976) or with acid SMase (microsome fraction from macrophages 5 μg of protein per batch [isolated according to S. Gatt, Biochem. Biophys. Res. Commun. 68, 235-241, (1976)] in the presence of various concentrations of the test substances for 2 hours at 37° C. in 20 mM Tris, 1 mM MgCl2, pH 7.5 (neutral SMase) or in 50 mM sodium acetate, 1 mM MgCl2, pH 5.6 (acidic SMase). Then the samples were extracted with 5 times the volume of chloroform/methanol (1:1) and the content of radioactive phosphorylcholine in the aqueous phase was determined. The release of phosphorylcholine in the untreated batches corresponds to 100%.

The target in test [3] is T1, neutral SMase (membrane fraction isolated from mice brains) (Mus musculus, UniProt Q9JJY3).
T1 construct: membrane fraction isolated from mice brains, 10 μg of protein/mixture [according to S. Gatt, Biochem. Biophys; Res. Commun; 68, 235-241 (1976)]
T1 sequence (Q9JJY3 1-655): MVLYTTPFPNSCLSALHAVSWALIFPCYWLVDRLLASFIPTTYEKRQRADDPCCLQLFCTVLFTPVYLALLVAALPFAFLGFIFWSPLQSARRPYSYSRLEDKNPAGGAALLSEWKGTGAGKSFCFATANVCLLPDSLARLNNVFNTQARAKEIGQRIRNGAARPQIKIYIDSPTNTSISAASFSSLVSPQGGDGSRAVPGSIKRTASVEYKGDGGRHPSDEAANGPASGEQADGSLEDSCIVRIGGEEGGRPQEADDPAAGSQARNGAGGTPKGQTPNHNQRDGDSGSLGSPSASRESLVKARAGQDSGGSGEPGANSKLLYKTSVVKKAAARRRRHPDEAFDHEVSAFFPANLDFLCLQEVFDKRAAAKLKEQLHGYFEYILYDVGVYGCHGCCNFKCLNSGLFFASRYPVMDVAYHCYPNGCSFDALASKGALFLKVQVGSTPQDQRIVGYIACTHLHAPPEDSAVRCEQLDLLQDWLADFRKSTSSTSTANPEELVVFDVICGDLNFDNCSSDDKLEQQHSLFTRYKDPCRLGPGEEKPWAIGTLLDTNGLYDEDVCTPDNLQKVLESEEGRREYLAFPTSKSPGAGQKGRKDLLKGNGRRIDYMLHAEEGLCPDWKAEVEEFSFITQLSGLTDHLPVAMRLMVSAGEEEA
The experiment in a line: Inhibition of neutral SMase (14C sphingomyelin hydrolysis). It is filed as biochemical. The conditions noted are these: 2 h, pH 7.5, read-out: nSMase activity. The method, then:
Then the samples were extracted with 5 times the volume of chloroform/methanol (1:1) and the content of radioactive phosphorylcholine in the aqueous phase was determined. The release of phosphorylcholine in the untreated mixtures corresponds to 100% enzyme activity.
The release of phosphorylcholine in the untreated batches corresponds to 100%.

For test [4], the system named is RAW cells (mouse macrophage line). The experiment in a line: Inhibition of NO-synthase induction in macrophages (nitrite in culture medium). Type of test: cell-based. Particulars: 10 ng/ml LPS, 16 hours, without C11AG 0.122. How it is done: RAW cells (mouse macrophage line, origin: American Type Culture Collection) were treated with 10 ng/ml of endotoxin from E. coli (LPS) in the presence of different concentrations of C11AG. After 16 hours the nitrite content in the culture medium was measured using the method described [K. Tschaikowsky, M. Meisner, F. Schonhuber and E. Rugheimer, Br. J. Pharmacol. 113 (3): 664-8 (1994)].
The inhibition of NO-synthase induction is graphically shown in FIG. 3; the NO2 concentration [OD measured at 540 nm] is plotted against the C11AG concentration [μg/ml] for 10 ng/ml of LPS.

Test [5] relates to endotoxin from E. coli (endotoxic shock). The experiment in a line: Protection from endotoxic shock by C11AG in mice. Type of test: in vivo, mice (strain NMRI/Nu). Particulars: 50 mg/kg subcutaneously 30 minutes before 0.2 mg endotoxin i.p.; nine animals; all 10 controls died within 24 hours. The method, then: Mice (strain NMRI/Nu, 8 weeks old, female) were each given 0.2 mg of endotoxin from E. coli (Sigma, Munich) by intraperitoneal route. The 10 control animals, who had been given 0.2 ml of 5% glucose subcutaneously, died within 24 hours. Nine animals were injected subcutaneously with 50 mg/kg of C11AG 30 minutes before the endotoxin treatment. Of this group, only 2 animals died.

The subject of test [6] is collagen-induced arthritis. The experiment in a line: Inhibition of collagen-induced arthritis in the mouse. It is filed as in vivo, DBA/I mice. Particulars: for Total Symptoms: day 7 after booster injection, 10 animals. The method, then: An autoimmune reaction against cartilagenous tissue was produced by injecting collagen into DBA/I mice as described (Holmdahl, R. et al., Immunology, 65, 305-310, 1988). Groups of 10 animals were used as control or were given 50 mg/kg or 100 mg/kg of C11AG per day by oral route. The drug was administered in the food (Altromin, powdered food) and the dosage was calculated from the daily food intake. The symptoms were evaluated daily for each individual paw from 0.5-3 as described [R. Holmdahl, et al., Immunology, 65, 305-310, (1988)].
20 days after the booster injection the animals were killed and the joints were examined by histopathology resulting in the following picture: […]

This is an account of results in US6444706B2, “Guanidine derivatives, processes for preparing them and their use as pharmaceutical compositions” (priority 1996, dated 2002).

With `CCCCCCCC=NNC(=N)N` [1-(octylidene-amino)guanidine], the IC50 with herpes virus turned out to be 49.7 µM.
Same read-out and setting: in the case of `N=C(N)NN=C1C=Cc2cccc3cccc1c23` [1-(phenalen-1-ylidene-amino)guanidine, 1-(Phenalen-1-ylidene-amino)guanidine] it was 45.4 µM.
On to `CCCCCCCCCCCNNC(=N)N` [H2C11AG, 1-(undecylamino) guanidine], for which the survivors in test [1] (control 2 survivors) is on record as 9. Besides, the “survivors (%)” value in test [1] (control 20%) is listed as 90%. Moreover, the aSMase activity in test [2] (1 μg/ml) worked out at 100%. The aSMase activity in test [2] (10 μg/ml) is on record as 97%. For the same compound, the aSMase activity in test [2] (100 μg/ml) amounted to 32%. Also, in test [3], the activity at 1 µg/mL amounted to 73%, the activity at 10 µg/mL was determined as 22% and the activity at 100 µg/mL worked out at 2%.
On to `N=C(N)NN=Cc1c[nH]c2ccccc12` [1-(indol-3-ylmethylene-amino)guanidine, 1-(Indol-3-ylmethylene-amino)guanidine], for which the IC50 in the test with herpes virus came to 19.8 µM.
On to `CCCCCCCCCCC=NNC(=N)N` [C11AG, 1-(undecylideneamino)guanidine], for which the aSMase activity was determined as 101% in test [2] (1 μg/ml), 102% in test [2] (10 μg/ml) and 31% in test [2] (100 μg/ml). The “OD 540 nm (nitrite content in culture medium)” value is given as 0.091 in test [4] (0.5 μg/ml C11AG); 0.075 in test [4] (1 μg/ml C11AG); 0.054 in test [4] (2 μg/ml C11AG); 0.05 in test [4] (3 μg/ml C11AG); 0.038 in test [4] (4 μg/ml C11AG). The IC50 in the test with herpes virus worked out at 6.8 µM. Further, the activity at 1 µg/mL in test [3] worked out at 61%. Moreover, the activity at 10 µg/mL in test [3] amounted to 18%. In addition, in test [3], the activity at 100 µg/mL worked out at 0%. This compound also gave an animals died in test [5] of 2. For the same compound, the “Total Symptoms” value in test [6] (50 mg/kg per day oral in food) is 4.5; in test [6] (100 mg/kg per day oral in food), 1. Moreover, the “histopathology of joints (inflammatory processes)” value in test [6] (50 and 100 mg/kg, 20 days after booster injection) is “no such inflammatory processes could be detected”.
As for `CCCCCCCCC=NNC(=N)N` [1-(nonylidene-amino)guanidine], the IC50 with herpes virus was determined as 29 µM.
On the same count and under the same terms, in the case of `CCCCCCCCCCCC=NNC(=N)N` [1-(dodecylideneamino)guanidine] it was 3.2 µM.
The same measure, in the same setting: in the case of `N=C(N)NN=Cc1c2ccccc2cc2ccccc12` [1-(Anthracen-9-ylmethylene-amino)guanidine] it was 1.5 µM; in that of `CCCCCCCCCC=NNC(=N)N` [1-(decylidene-amino)guanidine], 28.9 µM.
